Reference: ChEMBL document CHEMBL5380817, “Discovery of LL-K8-22: A Selective, Durable, and Small-Molecule Degrader of the CDK8-Cyclin C Complex” (J Med Chem, 2023)
Active and inactive are the calls of the source. No cut-off for these calls is given here.

Legend:
[1] = biological target: T1, CDK8/Cyclin C (Homo sapiens) (UniProt P49336+P24863); test: Hydrophobic-tagging degradation activity at CDK8/Cyclin C in human MDA-MB-468 cells assessed as protein degradation at 1.1 to 10 uM incubated for 48 hrs by Western blotting analysis; type: cell-based; conditions: dose 1.1-10 µM
[2] = biological target: T2, Cyclin-dependent kinase 8 (Homo sapiens, UniProt P49336); test: Hydrophobic-tagging degradation activity at CDK8 in human MDA-MB-468 cells assessed as degradation of CDK8 incubated for 48 hrs by Western blotting analysis; type: cell-based
[3] = biological target: T1, CDK8/Cyclin C (Homo sapiens); test: Hydrophobic-tagging degradation activity at CDK8/Cyclin C in human HCT-116 cells assessed as protein degradation at 0.75 to 20 uM incubated for 48 hrs by Western blotting analysis; type: cell-based; conditions: dose 0.75-20 µM
[4] = biological target: T1, CDK8/Cyclin C (Homo sapiens); test: Hydrophobic-tagging degradation activity at CDK8/Cyclin C in human MDA-MB-231 cells assessed as protein degradation at 1.5 to 30 uM incubated for 48 hrs by Western blotting analysis; type: cell-based; conditions: dose 1.5-30 µM
[5] = biological target: Cyclin-dependent kinase 2 (Homo sapiens) (UniProt P24941); test: PROTAC activity at CDK2 in human MDA-MB-468 cells assessed as degradation of CDK2 at 0.625 to 10 uM incubated for 24 hrs by Western blotting analysis; type: cell-based; conditions: dose 0.625-10 µM
[6] = biological target: Cyclin-dependent kinase 7 (Homo sapiens) (UniProt P50613); test: Hydrophobic-tagging degradation activity at CDK7 in human MDA-MB-468 cells assessed as degradation of CDK7 at 0.625 to 10 uM incubated for 24 hrs by Western blotting analysis; type: cell-based; conditions: dose 0.625-10 µM
[7] = biological target: Cyclin-dependent kinase 9 (Homo sapiens) (UniProt P50750); test: Hydrophobic-tagging degradation activity at CDK9 in human MDA-MB-468 cells assessed as degradation of CDK9 at 0.625 to 10 uM incubated for 24 hrs by Western blotting analysis; type: cell-based; conditions: dose 0.625-10 µM
[8] = biological target: G1/S-specific cyclin-E1 (Homo sapiens) (UniProt P24864); test: PROTAC activity at Cyclin E1 in human MDA-MB-468 cells assessed as degradation of Cyclin E1 at 0.625 to 10 uM incubated for 24 hrs by Western blotting analysis; type: cell-based; conditions: dose 0.625-10 µM
Cyclin-K (Homo sapiens) = Cyclin-K (Homo sapiens) (UniProt O75909); test: PROTAC activity at Cyclin K in human MDA-MB-468 cells assessed as degradation of Cyclin K at 0.625 to 10 uM incubated for 24 hrs by Western blotting analysis; type: cell-based; conditions: dose 0.625-10 µM
Cyclin-C (Homo sapiens) = Cyclin-C (Homo sapiens) (UniProt P24863); test: PROTAC activity at Cyclin C in human MDA-MB-468 cells assessed as degradation of Cyclin C at 0.625 to 10 uM incubated for 24 hrs by Western blotting analysis; type: cell-based; conditions: dose 0.625-10 µM
[9] = biological target: Cyclin-dependent kinase 1 (Homo sapiens) (UniProt P06493); test: Hydrophobic-tagging degradation activity at CDK1 in human MDA-MB-468 cells assessed as downregulation of CDK1 mRNA level at 1.1 to 10 uM incubated for 24 hrs by RT-qPCR analysis; type: cell-based; conditions: dose 1.1-10 µM
[10] = biological target: T2, Cyclin-dependent kinase 8; test: Hydrophobic-tagging degradation activity at CDK8 in human MDA-MB-468 cells assessed as degradation of CDK8 protein at 5 uM incubated for 12 hrs by DIA-based proteomic analysis; type: cell-based
[11] = biological target: T1, CDK8/Cyclin C (Homo sapiens); test: Hydrophobic-tagging degradation activity at CDK8/Cyclin C in human MDA-MB-468 cells assessed as protein degradation at 10 uM incubated for 2 to 20 hrs in presence of cycloheximide by Western blotting analysis; type: cell-based; conditions: time 2-20 hrs, TDE = time-dependent effect
[12] = biological target: T1, CDK8/Cyclin C (Homo sapiens); test: Hydrophobic-tagging degradation activity at CDK8/Cyclin C in human MDA-MB-468 cells assessed as protein degradation at 3 uM incubated for 24 hrs in presence of 17-AAG by Western blotting analysis; type: cell-based
[13] = biological target: T1, CDK8/Cyclin C (Homo sapiens); test: Hydrophobic-tagging degradation activity at CDK8/Cyclin C in human MDA-MB-468 cells assessed as protein degradation at 5 uM incubated for 2 to 72 hrs by Western blotting analysis; type: cell-based; conditions: time 2-72 hrs, TDE = time-dependent effect
MDA-MB-468 [14] = test: Antiproliferative activity against human MDA-MB-468 cells assessed as reduction in cell viability incubated for 4 days by Celltiter glo luminescent assay; type: functional, cell-based; conditions: time 4.0 day
[15] = biological target: T1, CDK8/Cyclin C (Homo sapiens); test: Hydrophobic-tagging degradation activity at CDK8/Cyclin C in human MDA-MB-468 cells assessed as downregulation of C-terminal RNA polymerase II phosphorylation at serine 2 at 2 to 8 uM incubated for 24 hrs by Western blotting analysis; type: cell-based; conditions: dose 2-8 µM
[16] = biological target: T1, CDK8/Cyclin C (Homo sapiens); test: Hydrophobic-tagging degradation activity at CDK8/Cyclin C in human MDA-MB-468 cells assessed as downregulation of STAT1 phosphorylation at Ser727 residue at 4 uM incubated for 24 hrs by Western blotting analysis; type: cell-based
[17] = biological target: T1, CDK8/Cyclin C (Homo sapiens); test: Hydrophobic-tagging degradation activity at CDK8/Cyclin C in human MDA-MB-468 cells assessed as downregulation of STAT1 phosphorylation at Ser727 residue at 4 uM incubated for 24 hrs followed by compound washout and measured after 24 hrs by Western blotting analysis; type: cell-based
[18] = biological target: T1, CDK8/Cyclin C (Homo sapiens); test: Hydrophobic-tagging degradation activity at CDK8/Cyclin C in human MDA-MB-468 cells assessed as effect on mRNA expression level at 4 uM incubated for 24 hrs by […] analysis; type: cell-based
[19] = biological target: T1, CDK8/Cyclin C (Homo sapiens); test: Hydrophobic-tagging degradation activity at CDK8/Cyclin C in human MDA-MB-468 cells assessed as downregulation of MYC gene expression level at 4 uM incubated for 24 hrs by qPT-PCR analysis; type: cell-based
[20] = biological target: T1, CDK8/Cyclin C (Homo sapiens); test: Hydrophobic-tagging degradation activity at CDK8/Cyclin C in human MDA-MB-468 cells assessed as downregulation of d EAPP expression level at 4 uM incubated for 24 hrs by proteomic analysis; type: cell-based
[21] = biological target: T1, CDK8/Cyclin C (Homo sapiens); test: Hydrophobic-tagging degradation activity at CDK8/Cyclin C in human MDA-MB-468 cells assessed as downregulation of TERT gene expression level at 4 uM incubated for 24 hrs by qPT-PCR analysis; type: cell-based
[22] = biological target: T1, CDK8/Cyclin C (Homo sapiens); test: Hydrophobic-tagging degradation activity at CDK8/Cyclin C in human MDA-MB-468 cells assessed as downregulation of RET gene expression level at 4 uM incubated for 24 hrs by qPT-PCR analysis; type: cell-based
[23] = biological target: T2, Cyclin-dependent kinase 8; test: Hydrophobic-tagging degradation activity at CDK8 in human MDA-MB-468 cells assessed as downregulation of RAP2C protein expression at 5 uM incubated for 12 hrs by DIA-based proteomic analysis; type: cell-based
MDA-MB-468 [24] = test: Antiproliferative activity against human MDA-MB-468 cells assessed as inhibition of cell proliferation incubated for 4 days by Celltiter glo luminescent assay; type: functional, cell-based; conditions: MDA-MB-468, 96 h
MDA-MB-231 = test: Antiproliferative activity against human MDA-MB-231 cells assessed as inhibition of cell proliferation incubated for 4 days by Celltiter glo luminescent assay; type: functional, cell-based; conditions: MDA-MB-231, 96 h
HCT-116 = test: Antiproliferative activity against human HCT-116 cells assessed as inhibition of cell proliferation incubated for 4 days by Celltiter glo luminescent assay; type: functional, cell-based; conditions: HCT-116, 96 h

T2 sequence (P49336 whole entry): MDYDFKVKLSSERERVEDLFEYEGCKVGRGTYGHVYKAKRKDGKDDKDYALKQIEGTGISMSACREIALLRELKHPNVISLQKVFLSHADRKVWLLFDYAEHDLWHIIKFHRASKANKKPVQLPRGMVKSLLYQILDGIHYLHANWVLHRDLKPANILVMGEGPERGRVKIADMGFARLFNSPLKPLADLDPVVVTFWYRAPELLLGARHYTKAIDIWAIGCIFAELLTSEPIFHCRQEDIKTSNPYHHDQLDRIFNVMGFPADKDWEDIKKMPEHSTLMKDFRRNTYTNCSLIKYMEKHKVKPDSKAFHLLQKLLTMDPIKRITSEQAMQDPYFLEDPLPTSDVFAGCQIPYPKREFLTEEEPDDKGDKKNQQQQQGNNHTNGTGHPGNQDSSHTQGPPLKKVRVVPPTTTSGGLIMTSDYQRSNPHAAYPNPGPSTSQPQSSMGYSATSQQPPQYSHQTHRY
Sequence of Cyclin-C (Homo sapiens) (P24863 whole entry): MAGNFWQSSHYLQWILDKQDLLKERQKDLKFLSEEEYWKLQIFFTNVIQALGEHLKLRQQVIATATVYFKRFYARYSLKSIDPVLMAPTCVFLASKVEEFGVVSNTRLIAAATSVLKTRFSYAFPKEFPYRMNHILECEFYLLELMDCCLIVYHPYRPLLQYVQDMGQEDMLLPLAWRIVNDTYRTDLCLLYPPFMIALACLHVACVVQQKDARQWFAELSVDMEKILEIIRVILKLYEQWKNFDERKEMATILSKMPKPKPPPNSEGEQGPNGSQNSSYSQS
Sequence of Cyclin-dependent kinase 7 (Homo sapiens) (P50613 whole entry): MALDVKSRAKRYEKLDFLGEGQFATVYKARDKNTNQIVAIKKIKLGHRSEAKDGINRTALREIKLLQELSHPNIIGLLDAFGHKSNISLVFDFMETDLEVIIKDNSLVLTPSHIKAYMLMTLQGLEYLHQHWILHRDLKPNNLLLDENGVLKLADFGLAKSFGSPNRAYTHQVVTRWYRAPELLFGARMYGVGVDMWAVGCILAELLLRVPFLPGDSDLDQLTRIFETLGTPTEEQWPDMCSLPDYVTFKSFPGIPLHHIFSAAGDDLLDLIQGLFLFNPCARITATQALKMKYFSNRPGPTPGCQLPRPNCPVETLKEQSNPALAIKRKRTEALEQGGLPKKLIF
Sequence of Cyclin-K (Homo sapiens) (O75909 whole entry): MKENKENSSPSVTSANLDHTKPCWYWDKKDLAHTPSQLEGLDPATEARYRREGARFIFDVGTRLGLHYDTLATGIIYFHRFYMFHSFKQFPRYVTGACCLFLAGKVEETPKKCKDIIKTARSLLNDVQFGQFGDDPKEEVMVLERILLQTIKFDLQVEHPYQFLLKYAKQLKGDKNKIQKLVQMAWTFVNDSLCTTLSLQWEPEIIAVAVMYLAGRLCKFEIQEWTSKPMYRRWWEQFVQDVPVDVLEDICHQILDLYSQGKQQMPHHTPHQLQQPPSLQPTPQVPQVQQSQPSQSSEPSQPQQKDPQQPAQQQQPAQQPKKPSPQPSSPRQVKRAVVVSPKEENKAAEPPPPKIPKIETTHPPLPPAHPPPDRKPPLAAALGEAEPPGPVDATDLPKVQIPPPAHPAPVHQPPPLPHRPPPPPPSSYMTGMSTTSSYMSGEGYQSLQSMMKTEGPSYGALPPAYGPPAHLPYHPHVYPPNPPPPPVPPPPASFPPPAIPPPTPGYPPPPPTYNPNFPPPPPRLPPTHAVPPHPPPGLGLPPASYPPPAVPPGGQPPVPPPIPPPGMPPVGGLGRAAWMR
Sequence of G1/S-specific cyclin-E1 (Homo sapiens) (P24864 whole entry): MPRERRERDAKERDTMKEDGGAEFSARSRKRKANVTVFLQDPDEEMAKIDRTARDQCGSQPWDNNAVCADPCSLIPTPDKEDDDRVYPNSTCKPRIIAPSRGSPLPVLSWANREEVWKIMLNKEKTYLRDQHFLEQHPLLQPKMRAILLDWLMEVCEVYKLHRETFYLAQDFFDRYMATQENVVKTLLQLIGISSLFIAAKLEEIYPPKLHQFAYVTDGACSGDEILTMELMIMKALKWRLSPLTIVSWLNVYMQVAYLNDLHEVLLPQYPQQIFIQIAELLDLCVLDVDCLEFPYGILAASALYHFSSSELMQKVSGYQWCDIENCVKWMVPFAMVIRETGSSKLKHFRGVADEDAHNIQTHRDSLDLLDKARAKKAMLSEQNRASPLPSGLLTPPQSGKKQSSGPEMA
Sequence of Cyclin-dependent kinase 9 (Homo sapiens) (P50750 whole entry): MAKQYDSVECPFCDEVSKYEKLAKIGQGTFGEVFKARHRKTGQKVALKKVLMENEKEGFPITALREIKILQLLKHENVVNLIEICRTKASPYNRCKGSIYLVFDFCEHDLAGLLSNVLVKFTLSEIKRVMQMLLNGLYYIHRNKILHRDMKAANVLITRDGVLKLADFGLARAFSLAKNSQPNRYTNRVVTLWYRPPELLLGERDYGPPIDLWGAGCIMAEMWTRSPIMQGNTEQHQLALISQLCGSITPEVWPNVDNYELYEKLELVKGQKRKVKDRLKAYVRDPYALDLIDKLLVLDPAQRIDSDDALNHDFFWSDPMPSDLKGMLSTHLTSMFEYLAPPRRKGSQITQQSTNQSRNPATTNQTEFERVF
Sequence of Cyclin-dependent kinase 1 (Homo sapiens) (P06493 whole entry, looked up): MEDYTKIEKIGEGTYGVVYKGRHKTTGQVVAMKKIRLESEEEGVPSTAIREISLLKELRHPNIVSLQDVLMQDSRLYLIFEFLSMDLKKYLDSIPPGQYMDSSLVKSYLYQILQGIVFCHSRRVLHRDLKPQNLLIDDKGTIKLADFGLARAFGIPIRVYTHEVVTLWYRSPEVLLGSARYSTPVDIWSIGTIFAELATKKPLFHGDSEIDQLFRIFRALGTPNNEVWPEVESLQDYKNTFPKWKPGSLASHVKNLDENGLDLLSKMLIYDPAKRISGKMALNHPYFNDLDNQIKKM

O=C(Cn1cc(-c2ccc(-c3cncc4ccccc34)cc2)cn1)N1CCN(CCCC23CC4CC(CC(C4)C2)C3)CC1
Activity [1]: Active | DC50 [2]: 2.52 µM | Activity [3]: Active | Activity [4]: Active | Activity [5]: inactive | Activity [6]: inactive | Activity [7]: inactive | Activity [8]: inactive | Activity (Cyclin-K (Homo sapiens)): inactive | Activity (Cyclin-C (Homo sapiens)): Active | Activity [9]: Active | Activity [10]: Active | Activity [11]: Tde | Activity [12]: Active | Activity [13]: Tde | Activity (MDA-MB-468 [14]): Active | Activity [15]: Dose-Dependent Effect | Activity [16]: Active | inhibition [17]: 70% | Activity [18]: inactive | Activity [19]: Active | Activity [20]: Active | Activity [21]: Active | Activity [22]: Active | Activity [23]: Active | IC50 (MDA-MB-468 [24]): 5.73 µM | IC50 (MDA-MB-231): 6.22 µM | IC50 (HCT-116): 5.87 µM
